Experimental data as given in PubChem BioAssay (NCI).
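48-hour exposure; five concentrations; linearly interpolated endpoints. Here, GI50 denotes the concentration required for 50% inhibition of growth. TGI: total growth inhibition.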

Assays:
Assay in all cases: inhibition of tumour cell growth, NCI panel, 48 h
NCI/ADR-RES ovarian = system: NCI/ADR-RES ovarian
A498 renal = system: A498 renal
IGROV1 ovarian = system: IGROV1 ovarian
UACC-62 melanoma = system: UACC-62 melanoma
UACC-257 melanoma = system: UACC-257 melanoma
HL-60(TB) leukemia = system: HL-60(TB) leukemia
SN12C renal = system: SN12C renal
MOLT-4 leukemia = system: MOLT-4 leukemia
CAKI-1 renal = system: CAKI-1 renal
MALME-3M melanoma = system: MALME-3M melanoma
NCI-H226 lung = system: NCI-H226 lung
NCI-H460 lung = system: NCI-H460 lung
SNB-75 CNS = system: SNB-75 CNS
HT29 colon = system: HT29 colon
NCI-H23 lung = system: NCI-H23 lung
MDA-MB-231 breast = system: MDA-MB-231 breast
T-47D breast = system: T-47D breast
SF-295 CNS = system: SF-295 CNS
SNB-19 CNS = system: SNB-19 CNS
HCT-15 colon = system: HCT-15 colon
OVCAR-5 ovarian = system: OVCAR-5 ovarian
HCC-2998 colon = system: HCC-2998 colon
CCRF-CEM leukemia = system: CCRF-CEM leukemia
SF-539 CNS = system: SF-539 CNS
PC-3 prostate = system: PC-3 prostate
UO-31 renal = system: UO-31 renal
SW-620 colon = system: SW-620 colon
MDA-MB-435 = system: MDA-MB-435
COLO 205 colon = system: COLO 205 colon
SR leukemia = system: SR leukemia
MCF7 breast = system: MCF7 breast
HOP-62 NSCLC = system: HOP-62 NSCLC
786-0 renal = system: 786-0 renal
KM12 colon = system: KM12 colon
DU-145 prostate = system: DU-145 prostate
HS 578T breast = system: HS 578T breast
BT-549 breast = system: BT-549 breast
OVCAR-3 ovarian = system: OVCAR-3 ovarian
HCT-116 colon = system: HCT-116 colon
SK-MEL-5 melanoma = system: SK-MEL-5 melanoma
SK-MEL-2 melanoma = system: SK-MEL-2 melanoma
RXF 393 renal = system: RXF 393 renal
M14 melanoma = system: M14 melanoma
HOP-92 NSCLC = system: HOP-92 NSCLC
SK-MEL-28 melanoma = system: SK-MEL-28 melanoma
SF-268 CNS = system: SF-268 CNS
K-562 leukemia = system: K-562 leukemia
U251 CNS = system: U251 CNS
OVCAR-4 ovarian = system: OVCAR-4 ovarian
ACHN renal = system: ACHN renal
RPMI-8226 leukemia = system: RPMI-8226 leukemia
A549 NSCLC = system: A549 NSCLC
LOX IMVI melanoma = system: LOX IMVI melanoma
SK-OV-3 ovarian = system: SK-OV-3 ovarian
NCI-H522 lung = system: NCI-H522 lung
TK-10 renal = system: TK-10 renal
OVCAR-8 ovarian = system: OVCAR-8 ovarian

For `CC/C(=C(/c1ccc(O)cc1)c1ccc(OCCN)cc1)c1ccccc1`, the GI50 (NCI/ADR-RES ovarian) was 3.31 µM, the TGI (NCI/ADR-RES ovarian) was 10.6 µM and the GI50 (A498 renal) was 2.49 µM. It also gave a TGI (A498 renal) of 16.8 µM, a GI50 (IGROV1 ovarian) of 4.62 µM and a TGI (IGROV1 ovarian) of 15.5 µM. The GI50 (UACC-62 melanoma) was 2.44 µM, the TGI (UACC-62 melanoma) was 7.43 µM and the GI50 (UACC-257 melanoma) was 10.5 µM. It also gave a TGI (UACC-257 melanoma) of 22.7 µM, a GI50 (HL-60(TB) leukemia) of 2.18 µM and a TGI (HL-60(TB) leukemia) of 5.36 µM. It also gave a GI50 (SN12C renal) of 3.02 µM, a TGI (SN12C renal) of 9.67 µM and a GI50 (MOLT-4 leukemia) of 3 µM. For the same molecule, the TGI (MOLT-4 leukemia) was 9.07 µM, the GI50 (CAKI-1 renal) was 1.64 µM and the TGI (CAKI-1 renal) was 4.18 µM. It also gave a GI50 (MALME-3M melanoma) of 1.69 µM, a TGI (MALME-3M melanoma) of 3.53 µM and a GI50 (NCI-H226 lung) of 11.6 µM. The TGI (NCI-H226 lung) was 30.7 µM, the GI50 (NCI-H460 lung) was 1.96 µM and the TGI (NCI-H460 lung) was 3.95 µM. It also gave a GI50 (SNB-75 CNS) of 1.86 µM, a TGI (SNB-75 CNS) of 12.1 µM and a GI50 (HT29 colon) of 2.49 µM. For the same molecule, the TGI (HT29 colon) was 5.78 µM, the GI50 (NCI-H23 lung) was 4.56 µM and the TGI (NCI-H23 lung) was 16.5 µM. For the same molecule, the GI50 (MDA-MB-231 breast) was 1.98 µM, the TGI (MDA-MB-231 breast) was 5.23 µM and the GI50 (T-47D breast) was 1.67 µM. It also gave a TGI (T-47D breast) of 5.94 µM, a GI50 (SF-295 CNS) of 1.86 µM and a TGI (SF-295 CNS) of 4 µM. The GI50 (SNB-19 CNS) was 4.95 µM, the TGI (SNB-19 CNS) was 19 µM and the GI50 (HCT-15 colon) was 1.91 µM. The TGI (HCT-15 colon) was 4.06 µM, the GI50 (OVCAR-5 ovarian) was 6.26 µM and the TGI (OVCAR-5 ovarian) was 20.2 µM. The GI50 (HCC-2998 colon) was 1.95 µM, the TGI (HCC-2998 colon) was 3.72 µM and the GI50 (CCRF-CEM leukemia) was 2.87 µM. For the same molecule, the TGI (CCRF-CEM leukemia) was 8.77 µM, the GI50 (SF-539 CNS) was 3.73 µM and the TGI (SF-539 CNS) was 8.01 µM. It also gave a GI50 (PC-3 prostate) of 2.66 µM, a TGI (PC-3 prostate) of 8.26 µM and a GI50 (UO-31 renal) of 2.72 µM. It also gave a TGI (UO-31 renal) of 8.57 µM, a GI50 (SW-620 colon) of 1.87 µM and a TGI (SW-620 colon) of 3.91 µM. For the same molecule, the GI50 (MDA-MB-435) was 1.63 µM, the TGI (MDA-MB-435) was 3.42 µM and the GI50 (COLO 205 colon) was 1.95 µM. For the same molecule, the TGI (COLO 205 colon) was 3.75 µM, the GI50 (SR leukemia) was 1.78 µM and the TGI (SR leukemia) was 4.53 µM. It also gave a GI50 (MCF7 breast) of under 0.0233 µM, a TGI (MCF7 breast) of 3.99 µM and a GI50 (HOP-62 NSCLC) of 3.3 µM. The TGI (HOP-62 NSCLC) was 10.7 µM, the GI50 (786-0 renal) was 2.69 µM and the TGI (786-0 renal) was 7.28 µM. For the same molecule, the GI50 (KM12 colon) was 1.97 µM, the TGI (KM12 colon) was 3.9 µM and the GI50 (DU-145 prostate) was 3.5 µM. The TGI (DU-145 prostate) was 10.8 µM, the GI50 (HS 578T breast) was 2.82 µM and the TGI (HS 578T breast) was 12.8 µM. For the same molecule, the GI50 (BT-549 breast) was 6.31 µM, the TGI (BT-549 breast) was 19.6 µM and the GI50 (OVCAR-3 ovarian) was 2.96 µM. It also gave a TGI (OVCAR-3 ovarian) of 8.01 µM, a GI50 (HCT-116 colon) of 1.91 µM and a TGI (HCT-116 colon) of 4.08 µM. It also gave a GI50 (SK-MEL-5 melanoma) of 1.97 µM, a TGI (SK-MEL-5 melanoma) of 4.3 µM and a GI50 (SK-MEL-2 melanoma) of 3.6 µM. It also gave a TGI (SK-MEL-2 melanoma) of 8.55 µM, a GI50 (RXF 393 renal) of 2.17 µM and a TGI (RXF 393 renal) of 7.07 µM. It also gave a GI50 (M14 melanoma) of 1.81 µM, a TGI (M14 melanoma) of 3.48 µM and a GI50 (HOP-92 NSCLC) of 1.46 µM. It also gave a TGI (HOP-92 NSCLC) of 5.84 µM, a GI50 (SK-MEL-28 melanoma) of 1.75 µM and a TGI (SK-MEL-28 melanoma) of 3.38 µM. For the same molecule, the GI50 (SF-268 CNS) was 3.09 µM, the TGI (SF-268 CNS) was 9.58 µM and the GI50 (K-562 leukemia) was 2.03 µM. The TGI (K-562 leukemia) was 4.72 µM, the GI50 (U251 CNS) was 1.82 µM and the TGI (U251 CNS) was 3.86 µM. For the same molecule, the GI50 (OVCAR-4 ovarian) was 2.88 µM, the TGI (OVCAR-4 ovarian) was 16 µM and the GI50 (ACHN renal) was 2.4 µM. It also gave a TGI (ACHN renal) of 6.76 µM, a GI50 (RPMI-8226 leukemia) of 2.37 µM and a TGI (RPMI-8226 leukemia) of 5.65 µM. For the same molecule, the GI50 (A549 NSCLC) was 2.97 µM, the TGI (A549 NSCLC) was 8.81 µM and the GI50 (LOX IMVI melanoma) was 1.76 µM. It also gave a TGI (LOX IMVI melanoma) of 3.23 µM, a GI50 (SK-OV-3 ovarian) of 5.06 µM and a TGI (SK-OV-3 ovarian) of 18 µM. The GI50 (NCI-H522 lung) was 4.26 µM, the TGI (NCI-H522 lung) was 9.36 µM and the GI50 (TK-10 renal) was 4.91 µM. For the same molecule, the TGI (TK-10 renal) was 10.2 µM, the GI50 (OVCAR-8 ovarian) was 3.12 µM and the TGI (OVCAR-8 ovarian) was 9.94 µM.
